# Tested on: mouse macrophage cells
# Experiment: reduction of the inhibition of migration of incubated macrophage cells after oral dosing (similar to Likhite et al.)
# Format: in vivo
# Conditions: mice, twice administered orally, one hour before and four hours after antigen, dose each time that would reduce by 50% the inhibition of macrophage migration
# Procedure: For example, from tests in mice it was calculated that compounds of formula I, when twice administered orally, one hour before and four hours after the administration of antigen, each time at the doses shown in the following Table I, would reduce by 50% the inhibition of migration of incubated mouse macrophage cells measured in a manner similar to that described by Likhite et al., Cellular Immunology, Vol. 5, 1972, page 377. This is a measure of antagonism or reduction of the levels of lymphokines and is indicative of utility in the treatment of arthritic patients.
row,Structure (SMILES),ED50
1,"CCOC(=O)C(=CNc1ccc2c(c1)c(C)cc1nnc(-c3ccccc3)n12)C(=O)OCC [A, 7-[2,2-bis(ethoxycarbonyl)ethen-l-ylamino]-5-methyl-1-phenyl-1,2,4-triazolo[4,3-a]quinoline]",7 mg/kg
2,"CCOC(=O)C(=CNc1ccc2c(c1)c(C)cc1nnc(-c3ccc(OC)cc3)n12)C(=O)OCC [C, 7-[2,2-bis(ethoxycarbonyl)ethen-l-ylamino]-1-(4-methoxyphenyl)-5-methyl-1,2,4-triazolo-[4,3-a]quinoline]",< 10 mg/kg

# Tested on: lipoxygenase
# Experiment: lipoxygenase inhibition in vitro
# Format: biochemical
# Conditions: concentration 0.0001M, 100 µM
row,% inhibition of lipoxygenase,Structure (SMILES)
1,100%,"CCOC(=O)C(=CNc1ccc2c(c1)c(C)cc1nnc(-c3ccccc3)n12)C(=O)OCC [A, 7-[2,2-bis(ethoxycarbonyl)ethen-l-ylamino]-5-methyl-1-phenyl-1,2,4-triazolo[4,3-a]quinoline]"
2,100%,"CCOC(=O)C(=CNc1ccc2c(c1)c(C)cc1nnc(-c3ccc(C)cc3)n12)C(=O)OCC [B, 7-[2,2-bis(ethoxycarbonyl)ethen-l-ylamino]-5-methyl-l-(4-methylphenyl)-1,2,4-triazolo-[4,3-a]quinoline]"
3,50%,"CCOC(=O)C(=CNc1ccc(-c2nnc3cc(C)c4ccccc4n23)cc1)C(=O)OCC [E, 1-[4-{2,2-bis(ethoxycarbonyl)ethen-1-yl-amino}phenyl]-5-methyl-1,2,4-triazolo[4,3-a]-quinoline]"
4,98%,"CCOC(=O)C(=CNc1ccc2c(c1)c(C)cc1nnc(-c3ccc(C(C)(C)C)cc3)n12)C(=O)OCC [D, 1-(4-tert-butylphenyl)-7-[2,2-bis(ethoxycarbonyl)ethen-1-ylamino)-5-methyl-1,2,4-triazolo[4,3-a]quinoline]"

# Reference: patent EP0174833A2, “Triazoloquinoline derivatives” (MAY & BAKER LIMITED, priority 1984, dated 1986)
